Measured values as given in patent publication US20250288570A1, “TREATMENT OF NEUROLOGICAL DISORDERS” (Praxis Precision Medicines, Inc., priority 2022, published 2025).
“Also recorded” adds a separate entry of the source.

Tests used:
[1] = molecular target: T1, human Nav1.6 (Homo sapiens, UniProt Q9UQD0); assay: ATX-II activated late (persistent) INa block, automated patch clamp in HEK cells; format: cell-based; details: for inhibition of and preference for persistent INa (in words): hNav1.6; for Persistent INa Hill slope: hNav1.6 in HEK cells
T1 construct: HEK-293 cell lines stably expressing human Nav1.6 (NP_055006) were used; expressed in transfected cells
T1 sequence (Q9UQD0 whole entry): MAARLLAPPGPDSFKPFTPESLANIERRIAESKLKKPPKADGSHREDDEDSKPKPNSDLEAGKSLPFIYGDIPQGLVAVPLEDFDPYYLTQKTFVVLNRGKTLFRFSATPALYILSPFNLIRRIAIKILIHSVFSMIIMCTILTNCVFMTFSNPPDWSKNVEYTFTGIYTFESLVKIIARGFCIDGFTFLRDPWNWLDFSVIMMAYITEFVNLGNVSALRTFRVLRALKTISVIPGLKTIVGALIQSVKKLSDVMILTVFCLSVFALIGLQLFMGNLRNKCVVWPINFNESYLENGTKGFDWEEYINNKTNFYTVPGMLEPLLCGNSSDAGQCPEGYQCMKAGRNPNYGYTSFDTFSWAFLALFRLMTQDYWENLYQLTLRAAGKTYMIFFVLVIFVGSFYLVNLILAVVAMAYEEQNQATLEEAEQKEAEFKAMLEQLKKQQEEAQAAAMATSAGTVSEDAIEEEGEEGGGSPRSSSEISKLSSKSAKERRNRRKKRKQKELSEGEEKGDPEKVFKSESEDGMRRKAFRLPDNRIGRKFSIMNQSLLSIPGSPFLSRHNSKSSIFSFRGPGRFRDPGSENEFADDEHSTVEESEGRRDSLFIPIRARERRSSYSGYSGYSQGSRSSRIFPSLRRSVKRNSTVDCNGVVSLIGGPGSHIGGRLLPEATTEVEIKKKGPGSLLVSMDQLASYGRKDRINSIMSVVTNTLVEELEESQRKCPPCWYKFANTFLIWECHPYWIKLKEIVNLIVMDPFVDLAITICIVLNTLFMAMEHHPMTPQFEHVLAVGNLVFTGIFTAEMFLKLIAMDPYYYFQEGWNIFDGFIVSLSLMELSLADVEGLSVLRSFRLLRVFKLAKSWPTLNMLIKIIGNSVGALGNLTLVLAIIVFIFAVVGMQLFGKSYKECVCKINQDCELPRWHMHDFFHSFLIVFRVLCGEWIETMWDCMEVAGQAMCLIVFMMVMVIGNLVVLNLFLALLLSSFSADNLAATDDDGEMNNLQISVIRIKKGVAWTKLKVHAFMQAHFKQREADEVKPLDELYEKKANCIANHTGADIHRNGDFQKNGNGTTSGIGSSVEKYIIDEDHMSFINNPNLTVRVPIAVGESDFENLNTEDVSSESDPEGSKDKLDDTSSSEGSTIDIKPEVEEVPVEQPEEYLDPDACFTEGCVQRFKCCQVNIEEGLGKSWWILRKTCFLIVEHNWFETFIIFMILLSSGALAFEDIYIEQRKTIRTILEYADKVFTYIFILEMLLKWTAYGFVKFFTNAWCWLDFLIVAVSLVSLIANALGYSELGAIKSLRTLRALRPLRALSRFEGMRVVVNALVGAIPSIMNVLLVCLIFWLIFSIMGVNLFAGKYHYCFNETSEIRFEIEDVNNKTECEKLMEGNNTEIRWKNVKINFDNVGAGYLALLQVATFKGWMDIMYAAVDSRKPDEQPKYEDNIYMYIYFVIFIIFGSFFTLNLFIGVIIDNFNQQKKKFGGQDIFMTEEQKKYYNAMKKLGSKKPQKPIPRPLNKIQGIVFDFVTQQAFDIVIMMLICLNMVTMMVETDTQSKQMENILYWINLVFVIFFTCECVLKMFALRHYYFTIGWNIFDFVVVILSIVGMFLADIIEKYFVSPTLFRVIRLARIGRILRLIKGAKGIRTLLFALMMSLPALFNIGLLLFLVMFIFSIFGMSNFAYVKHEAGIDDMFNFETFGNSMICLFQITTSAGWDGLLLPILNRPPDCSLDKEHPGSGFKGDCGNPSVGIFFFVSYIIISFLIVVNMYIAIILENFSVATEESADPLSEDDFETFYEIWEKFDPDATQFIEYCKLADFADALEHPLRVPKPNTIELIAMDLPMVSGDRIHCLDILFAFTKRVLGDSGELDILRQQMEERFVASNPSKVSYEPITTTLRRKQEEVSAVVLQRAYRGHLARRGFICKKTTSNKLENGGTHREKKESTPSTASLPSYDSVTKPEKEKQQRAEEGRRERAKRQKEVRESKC

[2] = molecular target: T1, human Nav1.6; assay: Peak INa tonic block (TB), automated patch clamp in HEK cells; format: cell-based; details: ratio of peak INa (TB) to persistent INa IC50
[3] = molecular target: T1, human Nav1.6; assay: Peak INa use-dependent block (UDB-10 Hz), automated patch clamp in HEK cells; format: cell-based; details: for activity dependent block of peak INa (in words): hNav1.6; for Peak INa UDB-10 Hz Hill slope: use-dependent block
[4] = molecular target: T2, hNav1.6 (Homo sapiens, UniProt Q9UQD0); assay: Peak INa voltage-dependent block (VDB), automated patch clamp in HEK cells; format: cell-based
T2 construct: expressed in transfected cells; host or cells: HEK cells
T2 sequence (Q9UQD0 whole entry): as above

[5] = tested on: MES-induced seizures in male CD-1 mice; assay: Maximal electroshock (MES) induced seizure test, Example 3; format: in vivo, mouse; details: dose response
Description: The maximal electroshock (MES) test is a validated model for evaluating anti-seizure potential of compounds. […] The object of these studies was to evaluate the effect of Compound 1 (0.3, 1, 3 and 10 mg/kg p.o. (oral)) to attenuate MES-induced seizures in male CD-1 mice.
(§1) Food and water were available ad libitum.
Dosing solutions were prepared on each experiment day. […] VPA was prepared in saline (Vehicle 1). All solutions were protected from light. All compounds and vehicles were dosed at 10 ml/kg.
The MES test was carried out over two days with half of the mice from each treatment group being tested on each day. Mice were brought to the test room at least one hour before the start of the experiment. […] Mice were randomly assigned into one of the six treatment groups.
Animals were p.o. (oral) administered Compound 1 or 35% HPBCD (Vehicle 2) 30 minutes prior to the MES test or i.p. administered VPA or saline (Vehicle 1) 30 minutes prior to the MES test.
A Grass S88× (Grass Technologies of Astro-Med, Inc., West Warwick, RI) Stimulus Isolation Unit (A385, WPI Inc., USA) was set to deliver a 50 mA square-wave stimulus, with a 0.8 second duration, a pulse width of 10 msec, and a frequency of 50 Hz. […] Each mouse was observed continuously by individuals blinded to treatment conditions and results were recorded. […]
From these fitted curves, ED50 and EC50 values were calculated.

[6] = tested on: spontaneous locomotor activity in male CD-1 mice; assay: Spontaneous locomotor activity (sLMA) test, Example 4; details: mouse, in vivo
Description: The Spontaneous Locomotor Activity (sLMA) test is a validated model for evaluating the potential motor side effects of compounds. The objective of this study was to evaluate the effect of Compound 1 (3, 5.6, 10 and 20 […], p.o.) on spontaneous locomotor activity (sLMA) in male CD-1 mice at 30 minutes post-dose.
as §1
Dosing solutions were prepared on each experiment day. […] All solutions were protected from light. Samples from dosing solutions were stored at 4° C.
The sLMA test was carried out over two days. Half of the mice from each treatment group was tested on each day.
Animals were p.o. administered Compound 1 or 35% HPBCD (vehicle) 30 minutes prior to the sLMA test.
All mice were anesthetized with CO2. […] The supernatant plasma was pipetted into Eppendorf tubes.

[7] = tested on: MES-induced tonic hindlimb extension in male CD-1 mice; assay: MES acute seizure model, tonic hindlimb extension, Example 9; format: in vivo, mouse; details: for ED50: Mus musculus, read-out: ED50 value, protection from MES-induced tonic hindlimb extension
Description: The maximal electroshock (MES) acute seizure model of generalized seizures is validated for evaluating the anticonvulsant potential of compounds. […] The objective of this study was to evaluate the effect of Compound 1 on maximal electroshock induced seizure in male CD-1 mice.
Male CD-1 mice (Vital River, Beijing, China) approximately 6 weeks old were obtained for the study. Body weights were between 20.5 grams and 38.5 grams at the time the experiments were carried out. […] Food and water were available ad libitum.
Treatment was conducted using Compound 1 and 35% 2-hydroxypropyl-β-cyclodextrin (35% HPBCD, used as a negative control). Compound 1 stock solution was prepared fresh each experiment day in 35% HPBCD and protected from light. The stock solution was diluted with vehicle for lower doses.
Mice were brought to the test room at least one hour before the start of the experiment. Mice were administered valproate (VPA; 400 mg/kg, intraperitoneally); or vehicle (35% HPBCD, 10 mL/kg, intraperitoneally); or Compound 1 (0.3 mg/kg, 1 mg/kg, 3 mg/kg or 10 mg/kg, orally) 30 minutes prior to the MES test.
The electroshock apparatus was set to deliver a 50 mA square-wave stimulus, with a 0.8 second duration, a pulse width of 10 milliseconds, and a frequency of 50 Hz. A pair of custom stainless-steel electrodes were soaked in 0.2% agar, and then the subject received bilateral transauricular stimulation through ear-clip electrodes. During the stimulation, mice were manually restrained then released immediately into an observation cage where they were monitored continuously for 60 seconds by an observer blinded to treatment group.
Mice were anesthetized with CO2 and terminal plasma and brain tissue samples were collected. […] The supernatant plasma was pipetted into Eppendorf tubes.
All statistical analyses were conducted using GraphPad Prism 9.3. Means were combined and standard error was calculated using the Satterthwaite Approximation to combine standard deviations. […] ED50 and EC50 values were calculated from these fit curves.

[8] = tested on: psychomotor seizures induced by 6-Hz electrical stimulation in CD-1 mice; assay: 6-Hz psychomotor seizure model (32 and 44 mA); format: in vivo, mouse; details: 600 mg/kg intraperitoneally
From the text: The 6-Hz test is a validated model of focal seizures for evaluating the anti-seizure potential of compounds. The 6-Hz seizure model can be performed at different stimulation intensities (32 or 44 mA), with the higher intensity (44 mA) used as a model of pharmacoresistant seizures. The positive control valproate is an approved anti-seizure medicine (ASM).
This study evaluated the efficacy of Compound 1 in attenuating psychomotor seizures induced by 6-Hz electrical stimulation at two different stimulation intensities (32 and 44 mA) in wild-type CD-1 mice. Psychomotor seizures are defined as the expression of at least one of the following behaviors: stun/immobility, forelimb clonus, straub tail or lateral head movement within 30 seconds of the stimulus. Protection is defined as a complete absence of the above behaviors within 30 seconds of the stimulus. Doses of Compound 1 used were 1 mg/kg, 3 mg/kg and 6 mg/kg administered orally. Valproate (600 mg/kg, administered intraperitoneally) was used as a positive control.
Male CD-1 mice (Charles River Laboratories; St. Constant, Quebec, CAN) were used for the study. Body weights at the time the experiment was carried out were 30-40 grams. The mice were group-housed in polycarbonate cages according to standard operating procedures. Animals were maintained on a 12-hour light/12 hour dark cycle, with all experimental activities occurring during the light phase. Food and water were available ad libitum. Mice acclimated to the test facility for at least 72 hours prior to testing.
Treatment was conducted using Compound 1 and 35% 2-hydroxypropyl-β-cyclodextrin (35% HPBCD, used as a negative control). Compound 1 stock solution was prepared fresh each experiment day in 35% HPBCD. […] Valproate was prepared fresh each experiment day in a vehicle of saline and dosed at 10 mL/kg.
Mice were administered vehicle (35% HPBCD), a single dose of Compound 1 (1 mg/kg, 3 mg/kg or 6 mg/kg) or valproate (600 mg/kg). Vehicle and Compound 1 were administered via oral gavage 30 minutes prior to […]. Valproate was administered as an intraperitoneal injection 60 minutes prior to the electrical stimulus.
Immediately prior to conducting the 6-Hz seizure test, a brief neurological assessment was performed. Each animal was visually assessed and received a score from 0 to 3 according to the following scoring system: neurological score of 0 corresponds to a normal status; neurological score of 1 corresponds to a modest decrease in spontaneous activity; neurological score of 2 corresponds to a marked decrease in spontaneous activity; and neurological score of 3 corresponds to loss of righting reflex.
Corneal electrodes moistened with saline (ECT unit 57800; Ugo Basile) were used to deliver the electrical stimulus (6-Hz, 0.2 millisecond pulse width, 3 seconds duration). The current delivered was either 32 mA or 44 mA. Immediately after the electrical stimulus, each mouse was monitored continuously for 30 seconds by an observer blinded to the treatment group. […] Mice were scored for the presence or absence of each seizure behavior, with a maximum total score of 4. […] At the end of the 6-Hz seizure test, plasma and brain samples were collected.
Mice were anesthetized with isoflurane, whole blood was collected via cardiac puncture and brains were harvested. […] Plasma and brain samples were stored at −80° C. and analyzed to determine levels of Compound 1. […]

[9] = 400 mg/kg intraperitoneally, listed as valproate

Row | Compound | Persistent INa Hill slope [1] | Peak INa TB Ratio to Pers. INa [2] | Peak INa UDB-10 Hz Ratio to Pers. INa [3] | Peak INa UDB-10 Hz Hill slope [3] | Peak INa VDB Hill slope [4] | Peak INa VDB Ratio to Pers. INa [4] | ED50 ([7]; male CD-1 mice) [mg/kg] | further results
1 | NC(=O)N1c2ccccc2C=Cc2ccccc21 [Carbamazepine, carbamazepine] | (1.1) | 30 | 18 | (0.9) | (0.9) | 0.6 | 3.8 to 5.4 | persistent INa preference to TB [1]: 30 ×; inhibition of and preference for persistent INa (in words) [1]: lower potency and preference for persistent INa; UDB preference to TB [3]: no UDB observed; activity dependent block of peak INa (in words) [3]: minimal activity dependent block of peak INa; protection against MES-induced seizures (in words) [5]: dose-dependent protection from MES-induced seizures; sLMA dose response (in words) [6]: dose-dependent reductions in sLMA
2 | NC(=O)O[C@@H](Cn1ncnn1)c1ccccc1Cl [Cenobamate, cenobamate] | (1.1) | 24 | 11 | (0.7) | (0.9) | 0.9 | 3.8 to 5.4 | persistent INa preference to TB [1]: 24 ×; UDB preference to TB [3]: 2.3 ×; ED50 value, protection from MES-induced tonic hindlimb extension ([7]; male CD-1 mice): 4.1 mg/kg
3 | COC[C@@H](NC(C)=O)C(=O)NCc1ccccc1 [Lacosamide, lacosamide] | (0.9) | – | 0.8 | (1.3) | (1.2) | 0.3 | – | –
4 | Nc1nnc(-c2cccc(Cl)c2Cl)c(N)n1 [Lamotrigine, lamotrigine] | (1.0) | – | – | (1.0) | (0.9) | – | 3.8 to 5.4 | inhibition of and preference for persistent INa (in words) [1]: lower potency and preference for persistent INa; activity dependent block of peak INa (in words) [3]: minimal activity dependent block of peak INa; protection against MES-induced seizures (in words) [5]: dose-dependent protection from MES-induced seizures; sLMA dose response (in words) [6]: dose-dependent reductions in sLMA
5 | NC(=O)N1c2ccccc2CC(=O)c2ccccc21 [Oxcarbazepine, oxcarbazepine] | (1.0) | 8 | – | – | (1.1) | 0.3 | – | –
6 | O=C1NC(=O)C(c2ccccc2)(c2ccccc2)N1 [Phenytoin, phenytoin] | (0.8) | – | 15 | (0.6) | (1.0) | 0.8 | – | –
7 | CCCC(CCC)C(=O)O [Valproic acid] | – | – | – | – | – | – | – | sedation before MES test (in words) ([7]; 400 mg/kg intraperitoneally, listed as Valproate): mild to moderate sedation; protection against MES-induced hindlimb extension (in words) [7, 9]: all mice n=24 were seizure-free; also recorded: protected mice from MES-induced tonic hindlimb extension; sedation before MES test (in words) [7, 9]: nearly all valproate-treated mice showed mild to moderate sedation; average neurological score [8]: 1.2; neurological scores / spontaneous activity ([8]; listed as valproate): modest to marked decrease in spontaneous activity
8 | Cc1cc(N2CCc3cc(F)ccc3C2)cc(C)c1NC(=O)CC(C)(C)C [XEN1101] | – | – | – | – | – | – | 3.8 to 5.4 | –
